Source: article PMC8490825 (Frontiers in Molecular Biosciences, 2021)
Where a SMILES comes first, the peptide text is derived from it. Bridges are numbered along the chain shown (N, C = ends).

Experiments:
hNaV1.3 = hNaV1.3 (Homo sapiens, UniProt Q9NY46); assay: cell-based; conditions: N = 3-4; SEM; read-out: IC50 ± SEM, NaV1.3
hNaV1.1 = hNaV1.1 (Homo sapiens, UniProt P35498); assay: cell-based; assay type: cell-based; conditions: N = 4-5; SEM; read-out: IC50 ± SEM, NaV1.1
hNaV1.4 = hNaV1.4 (Homo sapiens, UniProt P35499); assay: cell-based; assay type: cell-based; conditions: N = 4; SEM; read-out: IC50 ± SEM, NaV1.4
hNaV1.6 = hNaV1.6 (Homo sapiens, UniProt Q9UQD0); assay: cell-based; conditions: N = 4; SEM; read-out: IC50 ± SEM, NaV1.6
hNaV1.7 [1] = molecular target: T1, hNaV1.7 (Homo sapiens, UniProt Q15858); assay type: cell-based; conditions: SEM
T1 sequence (Q15858 whole entry, looked up): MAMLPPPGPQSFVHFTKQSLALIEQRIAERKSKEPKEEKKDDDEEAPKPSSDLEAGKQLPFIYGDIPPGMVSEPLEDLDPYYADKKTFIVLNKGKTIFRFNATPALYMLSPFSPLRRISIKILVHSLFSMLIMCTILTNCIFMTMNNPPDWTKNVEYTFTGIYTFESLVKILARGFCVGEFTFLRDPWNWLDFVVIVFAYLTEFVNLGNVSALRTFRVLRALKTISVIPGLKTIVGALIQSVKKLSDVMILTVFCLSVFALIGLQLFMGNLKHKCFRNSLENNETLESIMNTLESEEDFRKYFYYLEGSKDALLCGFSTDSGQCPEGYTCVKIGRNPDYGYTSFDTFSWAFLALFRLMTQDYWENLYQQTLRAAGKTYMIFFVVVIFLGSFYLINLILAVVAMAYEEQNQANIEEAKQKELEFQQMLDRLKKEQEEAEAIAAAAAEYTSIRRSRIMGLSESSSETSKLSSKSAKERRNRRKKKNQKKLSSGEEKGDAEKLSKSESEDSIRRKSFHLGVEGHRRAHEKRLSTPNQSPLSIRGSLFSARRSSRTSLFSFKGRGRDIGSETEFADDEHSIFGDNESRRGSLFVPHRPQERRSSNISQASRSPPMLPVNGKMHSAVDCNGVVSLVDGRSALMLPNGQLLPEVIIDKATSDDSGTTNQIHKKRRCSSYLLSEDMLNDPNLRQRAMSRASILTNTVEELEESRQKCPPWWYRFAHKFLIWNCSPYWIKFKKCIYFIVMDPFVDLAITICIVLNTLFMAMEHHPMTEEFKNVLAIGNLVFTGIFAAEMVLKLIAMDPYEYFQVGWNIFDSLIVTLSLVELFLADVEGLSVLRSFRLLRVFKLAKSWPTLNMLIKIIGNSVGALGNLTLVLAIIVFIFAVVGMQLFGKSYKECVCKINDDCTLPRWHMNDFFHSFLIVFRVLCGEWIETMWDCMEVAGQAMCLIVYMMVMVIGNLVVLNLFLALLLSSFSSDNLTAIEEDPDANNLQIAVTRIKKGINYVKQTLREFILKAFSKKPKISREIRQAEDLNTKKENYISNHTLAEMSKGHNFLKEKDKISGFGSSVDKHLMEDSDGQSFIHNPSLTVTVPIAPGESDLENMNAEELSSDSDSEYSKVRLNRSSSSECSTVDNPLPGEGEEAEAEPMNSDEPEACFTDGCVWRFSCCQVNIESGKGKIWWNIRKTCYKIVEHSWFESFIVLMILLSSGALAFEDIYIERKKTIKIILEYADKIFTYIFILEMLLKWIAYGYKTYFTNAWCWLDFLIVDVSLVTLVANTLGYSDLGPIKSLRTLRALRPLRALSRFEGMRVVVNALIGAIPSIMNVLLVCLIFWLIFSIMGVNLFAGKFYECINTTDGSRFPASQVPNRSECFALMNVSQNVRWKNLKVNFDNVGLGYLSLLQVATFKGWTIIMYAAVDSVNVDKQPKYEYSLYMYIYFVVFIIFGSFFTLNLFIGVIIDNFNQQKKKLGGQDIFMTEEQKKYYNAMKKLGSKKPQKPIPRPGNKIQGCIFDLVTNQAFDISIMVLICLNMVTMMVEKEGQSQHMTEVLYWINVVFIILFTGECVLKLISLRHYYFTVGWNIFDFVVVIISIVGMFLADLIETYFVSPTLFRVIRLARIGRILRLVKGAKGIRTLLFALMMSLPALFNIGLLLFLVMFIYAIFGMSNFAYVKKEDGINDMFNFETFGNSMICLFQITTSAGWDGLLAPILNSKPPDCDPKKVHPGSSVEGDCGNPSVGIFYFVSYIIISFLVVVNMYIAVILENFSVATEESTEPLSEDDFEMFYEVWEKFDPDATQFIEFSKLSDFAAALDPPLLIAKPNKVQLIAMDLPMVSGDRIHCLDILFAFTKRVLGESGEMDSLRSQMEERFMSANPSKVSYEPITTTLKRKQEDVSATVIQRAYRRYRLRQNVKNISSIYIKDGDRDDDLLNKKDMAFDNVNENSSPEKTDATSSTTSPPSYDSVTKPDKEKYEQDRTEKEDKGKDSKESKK

hNaV1.2 = hNaV1.2 (Homo sapiens, UniProt Q99250); assay: cell-based; conditions: N = 3-6; SEM; read-out: IC50 ± SEM, NaV1.2
Chain of hNaV1.2 (Q99250 whole entry, looked up): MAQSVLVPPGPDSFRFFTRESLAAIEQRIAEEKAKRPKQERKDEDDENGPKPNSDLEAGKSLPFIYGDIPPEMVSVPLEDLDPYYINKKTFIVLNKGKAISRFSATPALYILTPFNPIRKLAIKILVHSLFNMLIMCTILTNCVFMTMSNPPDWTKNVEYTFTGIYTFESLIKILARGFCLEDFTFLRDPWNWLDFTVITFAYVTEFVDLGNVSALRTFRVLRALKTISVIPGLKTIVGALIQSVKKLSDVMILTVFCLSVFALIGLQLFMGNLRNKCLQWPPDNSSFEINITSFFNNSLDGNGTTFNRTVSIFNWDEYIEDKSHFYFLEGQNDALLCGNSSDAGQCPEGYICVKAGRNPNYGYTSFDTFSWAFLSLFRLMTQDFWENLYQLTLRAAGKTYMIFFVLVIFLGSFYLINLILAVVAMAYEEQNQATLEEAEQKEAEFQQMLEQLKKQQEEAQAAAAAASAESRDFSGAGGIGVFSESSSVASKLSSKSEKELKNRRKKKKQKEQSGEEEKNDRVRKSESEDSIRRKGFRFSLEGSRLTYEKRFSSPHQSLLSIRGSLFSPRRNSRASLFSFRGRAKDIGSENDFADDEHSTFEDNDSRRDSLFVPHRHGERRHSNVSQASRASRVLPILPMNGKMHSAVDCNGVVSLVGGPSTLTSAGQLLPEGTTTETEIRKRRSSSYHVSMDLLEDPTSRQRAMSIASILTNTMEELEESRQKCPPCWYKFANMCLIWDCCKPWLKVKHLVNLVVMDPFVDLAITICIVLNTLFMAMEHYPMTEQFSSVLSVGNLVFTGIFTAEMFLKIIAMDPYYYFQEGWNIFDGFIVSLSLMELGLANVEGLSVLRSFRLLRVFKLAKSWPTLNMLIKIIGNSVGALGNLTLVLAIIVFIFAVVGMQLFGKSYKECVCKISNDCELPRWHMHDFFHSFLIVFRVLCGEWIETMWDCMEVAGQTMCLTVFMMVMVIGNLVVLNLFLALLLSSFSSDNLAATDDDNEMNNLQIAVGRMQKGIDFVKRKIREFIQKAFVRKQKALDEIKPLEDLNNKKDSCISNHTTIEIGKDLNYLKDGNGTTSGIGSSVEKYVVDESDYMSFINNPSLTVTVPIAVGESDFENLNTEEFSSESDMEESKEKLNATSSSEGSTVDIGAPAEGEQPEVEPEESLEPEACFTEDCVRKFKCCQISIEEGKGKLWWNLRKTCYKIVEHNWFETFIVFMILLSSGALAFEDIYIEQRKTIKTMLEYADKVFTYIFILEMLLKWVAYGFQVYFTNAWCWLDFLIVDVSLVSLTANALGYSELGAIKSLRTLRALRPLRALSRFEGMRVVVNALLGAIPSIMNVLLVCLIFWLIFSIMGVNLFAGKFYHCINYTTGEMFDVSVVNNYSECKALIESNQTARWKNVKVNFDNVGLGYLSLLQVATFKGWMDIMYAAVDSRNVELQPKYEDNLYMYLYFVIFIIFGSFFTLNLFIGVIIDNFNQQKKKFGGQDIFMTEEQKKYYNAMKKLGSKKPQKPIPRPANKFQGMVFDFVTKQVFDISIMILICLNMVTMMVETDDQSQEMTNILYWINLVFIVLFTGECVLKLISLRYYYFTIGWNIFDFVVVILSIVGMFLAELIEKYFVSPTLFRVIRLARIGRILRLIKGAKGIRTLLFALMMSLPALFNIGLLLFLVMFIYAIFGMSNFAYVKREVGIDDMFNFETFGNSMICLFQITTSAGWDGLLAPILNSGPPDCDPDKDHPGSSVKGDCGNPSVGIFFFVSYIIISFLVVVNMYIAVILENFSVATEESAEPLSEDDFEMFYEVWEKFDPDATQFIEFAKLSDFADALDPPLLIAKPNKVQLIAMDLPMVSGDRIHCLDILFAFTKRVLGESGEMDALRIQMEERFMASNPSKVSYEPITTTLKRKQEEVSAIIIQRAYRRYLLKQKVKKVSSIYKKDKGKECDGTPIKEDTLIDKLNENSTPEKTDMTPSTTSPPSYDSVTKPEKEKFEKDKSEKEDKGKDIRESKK

hNaV1.7 [2] = molecular target: T1, hNaV1.7; assay: cell-based; assay type: cell-based; conditions: N = 3-4; SEM; read-out: IC50 ± SEM, NaV1.7
hNaV1.5 = hNaV1.5 (Homo sapiens, UniProt Q14524); assay: cell-based; assay type: cell-based; conditions: N = 3-4; read-out: IC50 ± SEM, NaV1.5

## CC[C@H](C)[C@@H]1NC(=O)CNC(=O)[C@H](CC(C)C)NC(=O)[C@@H](NC(=O)CNC(=O)CN)CSSC[C@@H]2NC(=O)[C@@H]3CSSC[C@@H](C(=O)N[C@@H](CCCCN)C(=O)N[C@@H](Cc4c[nH]c5ccccc45)C(=O)N[C@@H](CCCCN)C(=O)N[C@@H](CC(C)C)C(=O)N[C@@H](Cc4c[nH]c5ccccc45)C(=O)O)NC(=O)[C@H](Cc4c[nH]c5ccccc45)NC(=O)[C@H](CCCNC(=N)N)NC(=O)[C@H](Cc4c[nH]cn4)NC(=O)[C@H](CCCCN)NC(=O)[C@H](CCCCN)NC(=O)[C@H](CO)NC(=O)[C@H](CSSC[C@H](NC(=O)[C@H](CO)NC(=O)[C@H](CO)NC(=O)[C@H](Cc4ccccc4)NC1=O)C(=O)N[C@@H](CC(=O)O)C(=O)N1CCC[C@H]1C(=O)N[C@@H](CCC(=O)O)C(=O)N[C@@H](CC(N)=O)C(=O)N[C@@H](CC(=O)O)C(=O)N[C@@H](CCCCN)C(=O)N3)NC(=O)[C@H](C(C)C)NC(=O)[C@H](CCCNC(=N)N)NC(=O)[C@H](CC(N)=O)NC(=O)[C@H](Cc1ccc(O)cc1)NC2=O [Tap1a-OPT1] (H-GGCLGIFSSCDPENDKCCYNRVCSKKHRWCKWKLW-OH; disulfide 3-18, 10-23, 17-30)
hNaV1.3
  IC50: 6 ± 0.5 nM
hNaV1.1
  IC50: 17 ± 3 nM
hNaV1.4
  IC50: 100 ± 19 nM
hNaV1.6
  IC50: 4.6 ± 2.3 nM
hNaV1.7 [1]
  Kon observed, hNaV1.7: 8.60 ± 1.7 × 10^−3 s^−1
hNaV1.2
  IC50: 5 ± 1 nM
hNaV1.7 [2]
  IC50: 3 ± 0.7 nM
hNaV1.5
  IC50: > 1000 nM
